Laboratory results published in patent publication US5059589A, “Glaucoma treatment” (Abbott Laboratories, priority 1990, dated 1991).

Legend:
[1] = tested on: intraocular pressure in rabbits; test: Effects of topically administered renin inhibiting compounds on intraocular pressure of rabbits; assay type: in vivo, Male albino, New Zealand rabbits; settings: topical 0.1 ml, 0.5% active substance
Procedure: The antiglaucoma activity of the compounds was tested by measuring the effect on intraocular pressure in rabbits as described by Tinjum, A.M., Acta Ophthalmologica, 50, 677 (1972). Male albino, New Zealand rabbits were placed in restraining devices and the intraocular pressure was measured with an applamatic tonometer. Exactly 0.1 ml of an isotonic saline solution containing a test compound was instilled into the conjuctival sac and the intraocular pressure was measured at 5, 15, 30, 60, 90, 120 and 180 minutes afterwards.

[2] = tested on: intraocular pressure in rabbits; test: Dose response study of topically administered Compound V and timolol on intraocular pressure of rabbits; assay type: in vivo, rabbit; settings: topical
Procedure: (§1) The antiglaucoma activity of the compounds was tested by measuring the effect on intraocular pressure in rabbits as described by Tinjum, A.M., Acta Ophthalmologica, 50, 677 (1972). Male albino, New Zealand rabbits were placed in restraining devices and the intraocular pressure was measured with an applamatic tonometer. […]

[3] = tested on: intraocular pressure in rabbits; test: Topically administered Compound V alone and in combination with timolol on intraocular pressure of rabbits; assay type: in vivo, rabbit; settings: topical, alone, 0.05%
Procedure: as §1

[4] = 15 minutes after administration
[5] = 30 minutes after administration
[6] = 60 minutes after administration
[7] = 90 minutes after administration

SMILES: CC(C)(C)NC[C@H](O)COc1nsnc1N1CCOCC1 [Timolol, reference compound]
- Mean Intraocular Pressure in mmHg ([1]; 5 minutes after administration): 12.1 mmHg
- Mean Intraocular Pressure in mmHg [1, 4]: 9.9 mmHg
- Mean Intraocular Pressure in mmHg [1, 5]: 11.9 mmHg
- Mean Intraocular Pressure in mmHg [1, 6]: 10.6 mmHg
- Mean Intraocular Pressure in mmHg [1, 7]: 12.4 mmHg
- Mean Intraocular Pressure in mmHg ([1]; 120 minutes after administration): 13.3 mmHg
- Mean Intraocular Pressure in mmHg ([2]; 0.02%, 30 minutes after administration): 13.9 mmHg
- Mean Intraocular Pressure in mmHg ([2]; 0.02%, 120 minutes after administration): 22.4 mmHg
- Mean Intraocular Pressure in mmHg ([2]; 0.02%, 150 minutes after administration): 19.9 mmHg
- Mean Intraocular Pressure in mmHg ([2]; 0.05%, 15 minutes after administration): 12.8 mmHg
- Mean Intraocular Pressure in mmHg ([2]; 0.05%, 30 minutes after administration): 12.8 mmHg
- Mean Intraocular Pressure in mmHg ([2]; 0.05%, 60 minutes after administration): 12.3 mmHg
- Mean Intraocular Pressure in mmHg ([2]; 0.05%, 150 minutes after administration): 20.3 mmHg
- Mean Intraocular Pressure in mmHg ([2]; 0.2%, 5 minutes after administration): 12.1 mmHg
- Mean Intraocular Pressure in mmHg ([2]; 0.2%, 15 minutes after administration): 12.5 mmHg
- Mean Intraocular Pressure in mmHg ([2]; 0.2%, 60 minutes after administration): 12.8 mmHg
- Mean Intraocular Pressure in mmHg ([2]; 0.5%, 5 minutes after administration): 12.8 mmHg
- Mean Intraocular Pressure in mmHg ([2]; 0.5%, 15 minutes after administration): 12.8 mmHg
- Mean Intraocular Pressure in mmHg ([2]; 0.5%, 30 minutes after administration): 11.0 mmHg
- Mean Intraocular Pressure in mmHg ([2]; 0.5%, 60 minutes after administration): 10.9 mmHg
- Mean Intraocular Pressure in mmHg ([3]; 5 minutes after administration): 10.2 mmHg
- Mean Intraocular Pressure in mmHg [3, 4]: 11.0 mmHg
- Mean Intraocular Pressure in mmHg [3, 5]: 10.1 mmHg
- Mean Intraocular Pressure in mmHg [3, 6]: 9.9 mmHg
- Mean Intraocular Pressure in mmHg [3, 7]: 13.9 mmHg
